One series can be described thus: pKa (unpublished data). Format: physicochemical. Particulars: weak base.
For series [1] the following is noted: cat, in vivo. The protocol: Based on the dose administered in dogs, the selection of dosages for evaluating KPT-335 in cats was calculated using the Km factor, which adjusts drug doses across species based on body surface area (BSA) ([16]). […] For oral (p.o.) administration, single doses of 1 mg/kg BW and 2 mg/kg BW were tested across two groups. Additionally, an oral capsule group was administered at 0.2 mg/kg BW. […] The maximum safe dosage for dogs was determined to be 1.75 mg/kg BW, based on dosage conversion, the maximum safe dosage for cats was determined to be 2.33 mg/kg BW. Thus, we categorized the dosages as follows: 2 mg/kg BW was designated as the oral high-dose group, 1 mg/kg BW as the oral medium-dose group, and 0.2 mg/kg BW (1/10 of the recommended dose) as the oral low-dose group. These doses were determined based on the maximum safe dose in dogs and the solubility limitations of the drug. The smallest commercially available tablet contained 2.5 mg of KPT-335 and could not be divided, which meant that only whole tablets could be administered. Consequently, the 0.2 mg/kg BW dose could not be accurately achieved and was excluded from the tablet group trials. Only the 1 mg/kg BW and 2 mg/kg BW doses were included in the tablet groups. […]

For series [2] the following is noted: dogs; cited from earlier work.
For series [3] the following is noted: cited from earlier work.
Setting [4] is: dogs, orally 1.25 mg/kg BW (n = 4) ref 13.
Setting [5] is: dogs, orally 1.5 mg/kg BW (n = 4) ref 13.
Setting [6] is: healthy dogs, phase I study, 1.5 mg/kg BW ref 9.

The structures appear in SMILES notation. Read-outs that look alike come from different tables or passages of the source.

These results are taken from publication PMC12078333, “Pharmacokinetic evaluation and bioavailability of KPT-335 (Verdinexor) in cats” (Frontiers in Veterinary Science, 2025).

For the compound `O=C(/C=C\n1cnc(-c2cc(C(F)(F)F)cc(C(F)(F)F)c2)n1)NNc1ccccn1` [KPT-335], the pKa (in general, the pH at which an ionisable group is half protonated) in “pKa (unpublished data)” was determined as 10.6. Further, in series [1], the maximum safe dosage is 2.33 mg/kg BW. In addition, the maximum safe dosage in series [2] is on record as 1.75 mg/kg BW. In series [3] (dogs, 1.5 mg/kg BW ref 9, 13), the AUClast is reported as 1800–2,300 h·ng/mL; the Cmax (as a rule, the peak of the concentration-time curve) was 250 to 310 ng/mL; the half-life entry is reported as “approximately 4 h”. Besides, in series [3] (setting [4]), the “mean AUC” value was 1576.6 ng·h/mL and the “mean Cmax” value is 244.8 ng/mL. In addition, in series [3] (setting [5]), the “mean AUC” value is 2346.8 ng·h/mL and the “mean Cmax” value is 312 ng/mL. Further, in series [3] (setting [6]), the AUClast is 1760 ± 223 ng·h/mL, the Cmax is 253 ± 88.3 ng/mL and the T1/2 was 3.88 ± 2.71 h.
